Like-named read-outs stand apart in the source and are kept apart here.
Columns and labels:
Type in all cases: binding
Ribonuclease A (RNaseA) [1] = biological target: T1, Ribonuclease A (RNaseA) (Bos taurus, UniProt P61823); assay: reactive liquid sample DESI-MS of the native […] complex
T1 sequence (P61823 27-150): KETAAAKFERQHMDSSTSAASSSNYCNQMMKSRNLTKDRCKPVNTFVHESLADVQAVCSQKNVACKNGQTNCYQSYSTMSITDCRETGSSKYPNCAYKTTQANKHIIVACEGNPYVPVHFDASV

Ribonuclease A (RNaseA) [2] = biological target: T1, Ribonuclease A (RNaseA); assay: as above; remark: listed apart in the source
Ribonuclease A (RNaseA) [3] = biological target: T1, Ribonuclease A (RNaseA); assay: reactive liquid sample DESI-MS of the native complex, ligand titration
lysozyme = lysozyme (Gallus gallus, UniProt P00698); assay: reactive liquid sample DESI-MS of the native […] complex
Chain of lysozyme (P00698 19-147): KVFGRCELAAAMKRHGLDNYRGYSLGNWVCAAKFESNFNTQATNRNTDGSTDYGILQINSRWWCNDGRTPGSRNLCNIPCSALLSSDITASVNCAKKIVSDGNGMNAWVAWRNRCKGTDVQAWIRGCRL

Structure (SMILES): Nc1ccn([C@@H]2O[C@H](CO)[C@@H](O)[C@H]2OP(=O)(O)O)c(=O)n1 [2′-CMP, cytidine 2′-monophosphate]
- reactive liquid sample DESI-MS of the native 1:1 complex ([holo]/[apo] ratio at (Ribonuclease A (RNaseA) [1]): 0.13±0.017

Structure (SMILES): Nc1ccn([C@@H]2O[C@H](COP(=O)(O)OP(=O)(O)O)[C@@H](O)[C@H]2O)c(=O)n1 [CDP, cytidine 5′-diphosphate]
- reactive liquid sample DESI-MS of the native 1:1 complex ([holo]/[apo] ratio at (Ribonuclease A (RNaseA) [2]): 0.37±0.04

Structure (SMILES): Nc1ccn([C@@H]2O[C@H](COP(=O)(O)OP(=O)(O)OP(=O)(O)O)[C@@H](O)[C@H]2O)c(=O)n1 [CTP, cytidine 5′-triphosphate]
- Kd (Ribonuclease A (RNaseA) [3]): 1.91 µM

Structure (SMILES): CC(=O)N[C@H]1[C@H](O[C@H]2[C@H](O)[C@@H](NC(C)=O)C(O)O[C@@H]2CO)O[C@H](CO)[C@@H](O[C@@H]2O[C@H](CO)[C@@H](O)[C@H](O)[C@H]2NC(C)=O)[C@@H]1O (stereo partly shown) [NAG3, N,N’,N’’-triacetylchitotriose]
- Kd (lysozyme): 169 µM

— PMC3901310 (Analytical chemistry, 2013)
